In PubChem BioAssay (NCI):
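Compound exposure: 48 hours, 5 concentrations, 96-well plates. GI50: concentration for 50% inhibition of growth. TGI marks complete inhibition of growth.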

Columns and labels:
Experiment in all cases: growth of human tumour cells (NCI), 48 h
SF-268 CNS = tested on: SF-268 CNS
U251 CNS = tested on: U251 CNS
NCI-H522 lung = tested on: NCI-H522 lung
MDA-MB-435 = tested on: MDA-MB-435
SK-MEL-28 melanoma = tested on: SK-MEL-28 melanoma
MALME-3M melanoma = tested on: MALME-3M melanoma
HCC-2998 colon = tested on: HCC-2998 colon
UACC-62 melanoma = tested on: UACC-62 melanoma
SW-620 colon = tested on: SW-620 colon
ACHN renal = tested on: ACHN renal
SNB-19 CNS = tested on: SNB-19 CNS
EKVX NSCLC = tested on: EKVX NSCLC
NCI-H460 lung = tested on: NCI-H460 lung
LOX IMVI melanoma = tested on: LOX IMVI melanoma
K-562 leukemia = tested on: K-562 leukemia
HCT-116 colon = tested on: HCT-116 colon
786-0 renal = tested on: 786-0 renal
KM12 colon = tested on: KM12 colon
SF-295 CNS = tested on: SF-295 CNS
OVCAR-4 ovarian = tested on: OVCAR-4 ovarian
A549 NSCLC = tested on: A549 NSCLC
UO-31 renal = tested on: UO-31 renal
BT-549 breast = tested on: BT-549 breast
MOLT-4 leukemia = tested on: MOLT-4 leukemia
DU-145 prostate = tested on: DU-145 prostate
HOP-62 NSCLC = tested on: HOP-62 NSCLC
CAKI-1 renal = tested on: CAKI-1 renal
OVCAR-3 ovarian = tested on: OVCAR-3 ovarian
HCT-15 colon = tested on: HCT-15 colon
COLO 205 colon = tested on: COLO 205 colon
SF-539 CNS = tested on: SF-539 CNS
SK-MEL-5 melanoma = tested on: SK-MEL-5 melanoma
MDA-MB-231 breast = tested on: MDA-MB-231 breast
HS 578T breast = tested on: HS 578T breast
TK-10 renal = tested on: TK-10 renal
MCF7 breast = tested on: MCF7 breast
RXF 393 renal = tested on: RXF 393 renal
M14 melanoma = tested on: M14 melanoma
SK-OV-3 ovarian = tested on: SK-OV-3 ovarian
OVCAR-8 ovarian = tested on: OVCAR-8 ovarian
PC-3 prostate = tested on: PC-3 prostate
SR leukemia = tested on: SR leukemia
OVCAR-5 ovarian = tested on: OVCAR-5 ovarian
HOP-92 NSCLC = tested on: HOP-92 NSCLC
T-47D breast = tested on: T-47D breast
NCI-H23 lung = tested on: NCI-H23 lung
A498 renal = tested on: A498 renal
NCI/ADR-RES ovarian = tested on: NCI/ADR-RES ovarian
CCRF-CEM leukemia = tested on: CCRF-CEM leukemia
UACC-257 melanoma = tested on: UACC-257 melanoma
SK-MEL-2 melanoma = tested on: SK-MEL-2 melanoma
NCI-H226 lung = tested on: NCI-H226 lung
HT29 colon = tested on: HT29 colon
RPMI-8226 leukemia = tested on: RPMI-8226 leukemia
SN12C renal = tested on: SN12C renal
SNB-75 CNS = tested on: SNB-75 CNS
IGROV1 ovarian = tested on: IGROV1 ovarian
HL-60(TB) leukemia = tested on: HL-60(TB) leukemia

Structure (SMILES): C=C1C(=O)O[C@H]2[C@H]1CC/C(COC(=O)c1ccc3ccccc3c1)=C\CC[C@@]1(C)O[C@@H]21
- GI50 (SF-268 CNS): 1.28 µM
- TGI (SF-268 CNS): 2.75 µM
- GI50 (U251 CNS): 1.21 µM
- TGI (U251 CNS): 2.5 µM
- GI50 (NCI-H522 lung): 0.739 µM
- TGI (NCI-H522 lung): 2.2 µM
- GI50 (MDA-MB-435): 1.1 µM
- TGI (MDA-MB-435): 2.45 µM
- GI50 (SK-MEL-28 melanoma): 1.47 µM
- TGI (SK-MEL-28 melanoma): 2.96 µM
- GI50 (MALME-3M melanoma): 1.74 µM
- TGI (MALME-3M melanoma): 3.47 µM
- GI50 (HCC-2998 colon): 1.75 µM
- TGI (HCC-2998 colon): 3.36 µM
- GI50 (UACC-62 melanoma): 1.22 µM
- TGI (UACC-62 melanoma): 2.53 µM
- GI50 (SW-620 colon): 0.356 µM
- TGI (SW-620 colon): 1.39 µM
- GI50 (ACHN renal): 1.1 µM
- TGI (ACHN renal): 2.32 µM
- GI50 (SNB-19 CNS): 1.36 µM
- TGI (SNB-19 CNS): 2.75 µM
- GI50 (EKVX NSCLC): 1.63 µM
- TGI (EKVX NSCLC): 3.63 µM
- GI50 (NCI-H460 lung): 1.69 µM
- TGI (NCI-H460 lung): 3.75 µM
- GI50 (LOX IMVI melanoma): 0.406 µM
- TGI (LOX IMVI melanoma): 1.46 µM
- GI50 (K-562 leukemia): 0.39 µM
- TGI (K-562 leukemia): 5.47 µM
- GI50 (HCT-116 colon): 0.379 µM
- TGI (HCT-116 colon): 1.6 µM
- GI50 (786-0 renal): 1.18 µM
- TGI (786-0 renal): 2.65 µM
- GI50 (KM12 colon): 1.48 µM
- TGI (KM12 colon): 3.16 µM
- GI50 (SF-295 CNS): 1.54 µM
- TGI (SF-295 CNS): 3.06 µM
- GI50 (OVCAR-4 ovarian): 1.52 µM
- TGI (OVCAR-4 ovarian): 3.32 µM
- GI50 (A549 NSCLC): 1.59 µM
- TGI (A549 NSCLC): 3.43 µM
- GI50 (UO-31 renal): 0.859 µM
- TGI (UO-31 renal): 2.11 µM
- GI50 (BT-549 breast): 0.57 µM
- TGI (BT-549 breast): 2.03 µM
- GI50 (MOLT-4 leukemia): 0.503 µM
- TGI (MOLT-4 leukemia): 3.47 µM
- GI50 (DU-145 prostate): 0.945 µM
- TGI (DU-145 prostate): 2.23 µM
- GI50 (HOP-62 NSCLC): 1.56 µM
- TGI (HOP-62 NSCLC): 2.97 µM
- GI50 (CAKI-1 renal): 1.22 µM
- TGI (CAKI-1 renal): 2.46 µM
- GI50 (OVCAR-3 ovarian): 0.538 µM
- TGI (OVCAR-3 ovarian): 1.77 µM
- GI50 (HCT-15 colon): 0.394 µM
- TGI (HCT-15 colon): 1.66 µM
- GI50 (COLO 205 colon): 1.36 µM
- TGI (COLO 205 colon): 2.94 µM
- GI50 (SF-539 CNS): 0.838 µM
- TGI (SF-539 CNS): 2.23 µM
- GI50 (SK-MEL-5 melanoma): 1.63 µM
- TGI (SK-MEL-5 melanoma): 3 µM
- GI50 (MDA-MB-231 breast): 1.35 µM
- TGI (MDA-MB-231 breast): 3 µM
- GI50 (HS 578T breast): 1.53 µM
- TGI (HS 578T breast): 4.51 µM
- GI50 (TK-10 renal): 1.52 µM
- TGI (TK-10 renal): 2.85 µM
- GI50 (MCF7 breast): 0.457 µM
- TGI (MCF7 breast): 2.52 µM
- GI50 (RXF 393 renal): 0.286 µM
- TGI (RXF 393 renal): 1.48 µM
- GI50 (M14 melanoma): 1.13 µM
- TGI (M14 melanoma): 2.68 µM
- GI50 (SK-OV-3 ovarian): 3.51 µM
- TGI (SK-OV-3 ovarian): 10.8 µM
- GI50 (OVCAR-8 ovarian): 1.1 µM
- TGI (OVCAR-8 ovarian): 2.56 µM
- GI50 (PC-3 prostate): 1.24 µM
- TGI (PC-3 prostate): 2.79 µM
- GI50 (SR leukemia): 0.336 µM
- TGI (SR leukemia): > 26.8 µM
- GI50 (OVCAR-5 ovarian): 1.59 µM
- TGI (OVCAR-5 ovarian): 3.57 µM
- GI50 (HOP-92 NSCLC): 0.301 µM
- TGI (HOP-92 NSCLC): 1.81 µM
- GI50 (T-47D breast): 1.03 µM
- TGI (T-47D breast): 2.73 µM
- GI50 (NCI-H23 lung): 1.6 µM
- TGI (NCI-H23 lung): 3.36 µM
- GI50 (A498 renal): 1.88 µM
- TGI (A498 renal): 4.5 µM
- GI50 (NCI/ADR-RES ovarian): 2.32 µM
- TGI (NCI/ADR-RES ovarian): 10.2 µM
- GI50 (CCRF-CEM leukemia): 0.28 µM
- TGI (CCRF-CEM leukemia): 1.38 µM
- GI50 (UACC-257 melanoma): 1.39 µM
- TGI (UACC-257 melanoma): 2.78 µM
- GI50 (SK-MEL-2 melanoma): 1.2 µM
- TGI (SK-MEL-2 melanoma): 2.61 µM
- GI50 (NCI-H226 lung): 1.42 µM
- TGI (NCI-H226 lung): 3.21 µM
- GI50 (HT29 colon): 0.438 µM
- TGI (HT29 colon): 1.65 µM
- GI50 (RPMI-8226 leukemia): 0.281 µM
- TGI (RPMI-8226 leukemia): 0.869 µM
- GI50 (SN12C renal): 1.16 µM
- TGI (SN12C renal): 2.87 µM
- GI50 (SNB-75 CNS): 1.44 µM
- TGI (SNB-75 CNS): 3.05 µM
- GI50 (IGROV1 ovarian): 0.703 µM
- TGI (IGROV1 ovarian): 2.19 µM
- GI50 (HL-60(TB) leukemia): 0.849 µM
- TGI (HL-60(TB) leukemia): 3.83 µM
